What was measured:
Assay type in all cases: functional
U-251 = test: Growth inhibition of human U251 cells assessed as growth inhibition at 10 uM by sulforhodamine B assay; conditions: read-out: GI
HCT-15 = test: Growth inhibition of human HCT15 cells assessed as cell growth at 10 uM by sulforhodamine B assay; conditions: read-out: Activity
T47D [1] = test: Growth inhibition of human T47D cells assessed as growth inhibition at 10 uM by sulforhodamine B assay; conditions: read-out: GI
SN12C = test: Growth inhibition of human SN12C cells assessed as growth inhibition at 10 uM by sulforhodamine B assay; conditions: read-out: GI
OVCAR-8 = test: Growth inhibition of human OVCAR8 cells assessed as cell growth at 10 uM by sulforhodamine B assay; conditions: read-out: Activity
NCI-H460 = test: Growth inhibition of human NCI-H460 cells assessed as growth inhibition at 10 uM by sulforhodamine B assay; conditions: read-out: GI
UACC-257 [2] = test: Growth inhibition of human UACC257 cells assessed as cell growth at 10 uM by sulforhodamine B assay; conditions: read-out: Activity
MDA-MB-435 = test: Growth inhibition of human MDA-MB-435 cells assessed as growth inhibition at 10 uM by sulforhodamine B assay; conditions: read-out: GI
PC-3 = test: Growth inhibition of human PC3 cells assessed as growth inhibition at 10 uM by sulforhodamine B assay; conditions: read-out: GI
[3] = Growth inhibition of human Hs 578T cells assessed as cell growth at 10 uM by sulforhodamine B assay; conditions: read-out: Activity
TK-10 = test: Growth inhibition of human TK10 cells assessed as growth inhibition at 10 uM by sulforhodamine B assay; conditions: read-out: GI
SF-268 [4] = test: Growth inhibition of human SF268 cells assessed as growth inhibition at 10 uM by sulforhodamine B assay; conditions: read-out: GI
SK-MEL-5 = test: Growth inhibition of human SK-MEL-5 cells assessed as growth inhibition at 10 uM by sulforhodamine B assay; conditions: read-out: GI
SF-268 [5] = test: Growth inhibition of human SF268 cells assessed as cell growth at 10 uM by sulforhodamine B assay; conditions: read-out: Activity
SNB-75 [6] = test: Growth inhibition of human SNB75 cells assessed as growth inhibition at 10 uM by sulforhodamine B assay; conditions: read-out: GI
SW-620 [7] = test: Growth inhibition of human SW620 cells assessed as growth inhibition at 10 uM by sulforhodamine B assay; conditions: read-out: GI
HL-60(TB) = test: Growth inhibition of human HL-60(TB) cells assessed as growth inhibition at 10 uM by sulforhodamine B assay; conditions: read-out: GI
SF-539 [8] = test: Growth inhibition of human SF539 cells assessed as growth inhibition at 10 uM by sulforhodamine B assay; conditions: read-out: GI
OVCAR-4 [9] = test: Growth inhibition of human OVCAR4 cells assessed as growth inhibition at 10 uM by sulforhodamine B assay; conditions: read-out: GI
SNB-75 [10] = test: Growth inhibition of human SNB75 cells assessed as cell growth at 10 uM by sulforhodamine B assay; conditions: read-out: Activity
SF-539 [11] = test: Growth inhibition of human SF539 cells assessed as cell growth at 10 uM by sulforhodamine B assay; conditions: read-out: Activity
SF-295 = test: Growth inhibition of human SF295 cells assessed as cell growth at 10 uM by sulforhodamine B assay; conditions: read-out: Activity
SK-OV-3 = test: Growth inhibition of human SKOV3 cells assessed as growth inhibition at 10 uM by sulforhodamine B assay; conditions: read-out: GI
NCI-H322M = test: Growth inhibition of human NCI-H322M cells assessed as cell growth at 10 uM by sulforhodamine B assay; conditions: read-out: Activity
K562 = test: Growth inhibition of human K562 cells assessed as growth inhibition at 10 uM by sulforhodamine B assay; conditions: read-out: GI
A549 = test: Growth inhibition of human A549/ATCC cells assessed as cell growth at 10 uM by sulforhodamine B assay; conditions: read-out: Activity
T47D [12] = test: Growth inhibition of human T47D cells assessed as cell growth at 10 uM by sulforhodamine B assay; conditions: read-out: Activity
NCI-H23 = test: Growth inhibition of human NCI-H23 cells assessed as growth inhibition at 10 uM by sulforhodamine B assay; conditions: read-out: GI
UACC-62 [13] = test: Growth inhibition of human UACC62 cells assessed as growth inhibition at 10 uM by sulforhodamine B assay; conditions: read-out: GI
CAKI-1 = test: Growth inhibition of human CAKI-1 cells assessed as cell growth at 10 uM by sulforhodamine B assay; conditions: read-out: Activity
SW-620 [14] = test: Growth inhibition of human SW620 cells assessed as cell growth at 10 uM by sulforhodamine B assay; conditions: read-out: Activity
[15] = Growth inhibition of human NCI-ADR-RES cells assessed as cell growth at 10 uM by sulforhodamine B assay; conditions: read-out: Activity
RXF 393 = test: Growth inhibition of human RXF393 cells assessed as cell growth at 10 uM by sulforhodamine B assay; conditions: read-out: Activity
DU-145 [16] = test: Growth inhibition of human DU145 cells assessed as cell growth at 10 uM by sulforhodamine B assay; conditions: read-out: Activity
[17] = Growth inhibition of human HCC2998 cells assessed as cell growth at 10 uM by sulforhodamine B assay; conditions: HCC 2998, read-out: Activity
NCI-H226 = test: Growth inhibition of human NCI-H226 cells assessed as growth inhibition at 10 uM by sulforhodamine B assay; conditions: read-out: GI
NCI-H522 = test: Growth inhibition of human NCI-H522 cells assessed as growth inhibition at 10 uM by sulforhodamine B assay; conditions: read-out: GI
786-0 = test: Growth inhibition of human 786-0 cells assessed as cell growth at 10 uM by sulforhodamine B assay; conditions: read-out: Activity
SR = test: Growth inhibition of human SR cells assessed as cell growth at 10 uM by sulforhodamine B assay; conditions: read-out: Activity
UO-31 = test: Growth inhibition of human UO31 cells assessed as growth inhibition at 10 uM by sulforhodamine B assay; conditions: read-out: GI
DU-145 [18] = test: Growth inhibition of human DU145 cells assessed as growth inhibition at 10 uM by sulforhodamine B assay; conditions: read-out: GI
[19] = Growth inhibition of human Hs 578T cells assessed as growth inhibition at 10 uM by sulforhodamine B assay; conditions: read-out: GI
HT-29 = test: Growth inhibition of human HT-29 cells assessed as growth inhibition at 10 uM by sulforhodamine B assay; conditions: read-out: GI
OVCAR-4 [20] = test: Growth inhibition of human OVCAR4 cells assessed as cell growth at 10 uM by sulforhodamine B assay; conditions: read-out: Activity
Malme-3M = test: Growth inhibition of human MALME-3M cells assessed as growth inhibition at 10 uM by sulforhodamine B assay; conditions: read-out: GI
UACC-257 [21] = test: Growth inhibition of human UACC257 cells assessed as growth inhibition at 10 uM by sulforhodamine B assay; conditions: read-out: GI
UACC-62 [22] = test: Growth inhibition of human UACC62 cells assessed as cell growth at 10 uM by sulforhodamine B assay; conditions: read-out: Activity
MDA-MB-468 = test: Growth inhibition of human MDA-MB-468 cells assessed as growth inhibition at 10 uM by sulforhodamine B assay; conditions: read-out: GI
HCT-116 = test: Growth inhibition of human HCT116 cells assessed as growth inhibition at 10 uM by sulforhodamine B assay; conditions: read-out: GI

SMILES: CC1(C)C[C@@H](O)[C@]2(C(=O)O)CC[C@]3(C)C(=CC[C@@H]4[C@@]5(C)CC[C@H](O)C(C)(C)[C@@H]5CC[C@]43C)[C@@H]2C1
- inhibition of growth at 10 µM (U-251): < 10%
- growth at 10 µM (HCT-15): 96.5%
- inhibition of growth at 10 µM (T47D [1]): < 10%
- inhibition of growth at 10 µM (SN12C): 16.6%
- growth at 10 µM (OVCAR-8): 93.7%
- inhibition of growth at 10 µM (NCI-H460): < 10%
- growth at 10 µM (UACC-257 [2]): 107%
- inhibition of growth at 10 µM (MDA-MB-435): < 10%
- inhibition of growth at 10 µM (PC-3): 23.5%
- growth at 10 µM [3]: 102%
- inhibition of growth at 10 µM (TK-10): < 10%
- inhibition of growth at 10 µM (SF-268 [4]): < 10%
- inhibition of growth at 10 µM (SK-MEL-5): < 10%
- growth at 10 µM (SF-268 [5]): 102%
- inhibition of growth at 10 µM (SNB-75 [6]): < 10%
- inhibition of growth at 10 µM (SW-620 [7]): < 10%
- inhibition of growth at 10 µM (HL-60(TB)): 18%
- inhibition of growth at 10 µM (SF-539 [8]): < 10%
- inhibition of growth at 10 µM (OVCAR-4 [9]): < 10%
- growth at 10 µM (SNB-75 [10]): 97.7%
- growth at 10 µM (SF-539 [11]): 106%
- growth at 10 µM (SF-295): 153%
- inhibition of growth at 10 µM (SK-OV-3): < 10%
- growth at 10 µM (NCI-H322M): 99%
- inhibition of growth at 10 µM (K562): < 10%
- growth at 10 µM (A549): 87.5%
- growth at 10 µM (T47D [12]): 93%
- inhibition of growth at 10 µM (NCI-H23): < 10%
- inhibition of growth at 10 µM (UACC-62 [13]): 11.8%
- growth at 10 µM (CAKI-1): 91.8%
- growth at 10 µM (SW-620 [14]): 109%
- growth at 10 µM [15]: 104%
- growth at 10 µM (RXF 393): 112%
- growth at 10 µM (DU-145 [16]): 103%
- growth at 10 µM [17]: 109%
- inhibition of growth at 10 µM (NCI-H226): < 10%
- inhibition of growth at 10 µM (NCI-H522): < 10%
- growth at 10 µM (786-0): 90.7%
- growth at 10 µM (SR): 78%
- inhibition of growth at 10 µM (UO-31): 13.9%
- inhibition of growth at 10 µM (DU-145 [18]): < 10%
- inhibition of growth at 10 µM [19]: < 10%
- inhibition of growth at 10 µM (HT-29): < 10%
- growth at 10 µM (OVCAR-4 [20]): 96%
- inhibition of growth at 10 µM (Malme-3M): < 10%
- inhibition of growth at 10 µM (UACC-257 [21]): < 10%
- growth at 10 µM (UACC-62 [22]): 88.2%
- inhibition of growth at 10 µM (MDA-MB-468): 88.8%
- inhibition of growth at 10 µM (HCT-116): 17.3%

SMILES: CC1(C)C[C@@H](O)[C@]2(C(=O)O)CC[C@]3(C)C(=CC[C@@H]4[C@@]5(C)CCC(=O)C(C)(C)[C@@H]5CC[C@]43C)[C@@H]2C1
- inhibition of growth at 10 µM (U-251): 10.8%
- growth at 10 µM (HCT-15): 75.4%
- inhibition of growth at 10 µM (T47D [1]): 19.2%
- inhibition of growth at 10 µM (SN12C): 16.6%
- growth at 10 µM (OVCAR-8): 80.8%
- inhibition of growth at 10 µM (NCI-H460): < 10%
- growth at 10 µM (UACC-257 [2]): 91.2%
- inhibition of growth at 10 µM (MDA-MB-435): < 10%
- inhibition of growth at 10 µM (PC-3): 40.7%
- growth at 10 µM [3]: 99.3%
- inhibition of growth at 10 µM (TK-10): < 10%
- inhibition of growth at 10 µM (SF-268 [4]): < 10%
- inhibition of growth at 10 µM (SK-MEL-5): 12.2%
- growth at 10 µM (SF-268 [5]): 106%
- inhibition of growth at 10 µM (SNB-75 [6]): < 10%
- inhibition of growth at 10 µM (SW-620 [7]): < 10%
- inhibition of growth at 10 µM (HL-60(TB)): 24.8%
- inhibition of growth at 10 µM (SF-539 [8]): < 10%
- inhibition of growth at 10 µM (OVCAR-4 [9]): 14.1%
- growth at 10 µM (SNB-75 [10]): 101%
- growth at 10 µM (SF-539 [11]): 106%
- growth at 10 µM (SF-295): 80.7%
- inhibition of growth at 10 µM (SK-OV-3): < 10%
- growth at 10 µM (NCI-H322M): 97.5%
- inhibition of growth at 10 µM (K562): 23.2%
- growth at 10 µM (A549): 79%
- growth at 10 µM (T47D [12]): 80.8%
- inhibition of growth at 10 µM (NCI-H23): < 10%
- inhibition of growth at 10 µM (UACC-62 [13]): 19.5%
- growth at 10 µM (CAKI-1): 84.8%
- growth at 10 µM (SW-620 [14]): 104%
- growth at 10 µM [15]: 100%
- growth at 10 µM (RXF 393): 112%
- growth at 10 µM (DU-145 [16]): 113%
- growth at 10 µM [17]: 91%
- inhibition of growth at 10 µM (NCI-H226): < 10%
- inhibition of growth at 10 µM (NCI-H522): 19.1%
- growth at 10 µM (786-0): 86.2%
- growth at 10 µM (SR): 83.7%
- inhibition of growth at 10 µM (UO-31): 13.9%
- inhibition of growth at 10 µM (DU-145 [18]): < 10%
- inhibition of growth at 10 µM [19]: < 10%
- inhibition of growth at 10 µM (HT-29): 16.8%
- growth at 10 µM (OVCAR-4 [20]): 85.9%
- inhibition of growth at 10 µM (Malme-3M): 12.9%
- inhibition of growth at 10 µM (UACC-257 [21]): < 10%
- growth at 10 µM (UACC-62 [22]): 80.5%
- inhibition of growth at 10 µM (MDA-MB-468): < 10%
- inhibition of growth at 10 µM (HCT-116): 21.2%
